Source: patent publication US8633205B2, “Substituted pyrrolo[2,3-d]pyrimidines as inhibitors of protein kinases” (Vertex Pharmaceuticals Incorporated, priority 2005, dated 2014)

How the values were obtained:
Format in all cases: biochemical
JAK2 = JAK2 (Homo sapiens, UniProt O60674); assay: JAK2 Inhibition Assay; settings: 15 μM poly(Glu)4Tyr, 12 μM ATP; read-out: JAK2 enzyme inhibition (Ki)
Protocol: (§1) Compounds were screened for their ability to inhibit JAK using the […] below. Reactions were carried out in a kinase buffer containing 100 mM HEPES (pH 7.4), 1 mM DTT, 10 mM MgCl2, 25 mM NaCl, and 0.01% BSA.
(§2) Substrate concentrations in the assay were 5 μM ATP (200 uCi/μmole ATP) 1 μM poly(Glu)4Tyr. Reactions were carried out at 25 ° C. and 1 nM JAK3.
(§3) To each well of a 96 well polycarbonate plate was added 1.5 μl of a JAK3 inhibitor along with 50 μl of kinase buffer containing 2 μM poly(Glu)4Tyr and 10 μM ATP. This was then mixed and 50 μl of kinase buffer 2 nM JAK3 enzyme was added to start the reaction. After 20 minutes at room temperature (25C), the reaction was stopped with 50 μl of 20% trichloroacetic acid (TCA) that also contained 0.4 mM ATP. The entire contents of each well were then transferred to a 96 well glass fiber filter plate using a TomTek Cell Harvester. After washing, 60 μl of scintillation fluid was added and ^33P incorporation detected on a Perkin Elmer TopCount.
As described above in Example 11 except that JAK-2 enzyme is used, the final poly(Glu)4Tyr concentration is 15 μM, and final ATP concentration is 12 μM.

JAK3 = target: T1, JAK3 (Homo sapiens, UniProt P52333); assay: JAK3 Inhibition Assay; settings: 1 μM poly(Glu)4Tyr, 5 μM ATP, 1 nM JAK3, 25 °C; read-out: JAK3 enzyme inhibition (Ki)
T1 sequence (P52333 1-1124): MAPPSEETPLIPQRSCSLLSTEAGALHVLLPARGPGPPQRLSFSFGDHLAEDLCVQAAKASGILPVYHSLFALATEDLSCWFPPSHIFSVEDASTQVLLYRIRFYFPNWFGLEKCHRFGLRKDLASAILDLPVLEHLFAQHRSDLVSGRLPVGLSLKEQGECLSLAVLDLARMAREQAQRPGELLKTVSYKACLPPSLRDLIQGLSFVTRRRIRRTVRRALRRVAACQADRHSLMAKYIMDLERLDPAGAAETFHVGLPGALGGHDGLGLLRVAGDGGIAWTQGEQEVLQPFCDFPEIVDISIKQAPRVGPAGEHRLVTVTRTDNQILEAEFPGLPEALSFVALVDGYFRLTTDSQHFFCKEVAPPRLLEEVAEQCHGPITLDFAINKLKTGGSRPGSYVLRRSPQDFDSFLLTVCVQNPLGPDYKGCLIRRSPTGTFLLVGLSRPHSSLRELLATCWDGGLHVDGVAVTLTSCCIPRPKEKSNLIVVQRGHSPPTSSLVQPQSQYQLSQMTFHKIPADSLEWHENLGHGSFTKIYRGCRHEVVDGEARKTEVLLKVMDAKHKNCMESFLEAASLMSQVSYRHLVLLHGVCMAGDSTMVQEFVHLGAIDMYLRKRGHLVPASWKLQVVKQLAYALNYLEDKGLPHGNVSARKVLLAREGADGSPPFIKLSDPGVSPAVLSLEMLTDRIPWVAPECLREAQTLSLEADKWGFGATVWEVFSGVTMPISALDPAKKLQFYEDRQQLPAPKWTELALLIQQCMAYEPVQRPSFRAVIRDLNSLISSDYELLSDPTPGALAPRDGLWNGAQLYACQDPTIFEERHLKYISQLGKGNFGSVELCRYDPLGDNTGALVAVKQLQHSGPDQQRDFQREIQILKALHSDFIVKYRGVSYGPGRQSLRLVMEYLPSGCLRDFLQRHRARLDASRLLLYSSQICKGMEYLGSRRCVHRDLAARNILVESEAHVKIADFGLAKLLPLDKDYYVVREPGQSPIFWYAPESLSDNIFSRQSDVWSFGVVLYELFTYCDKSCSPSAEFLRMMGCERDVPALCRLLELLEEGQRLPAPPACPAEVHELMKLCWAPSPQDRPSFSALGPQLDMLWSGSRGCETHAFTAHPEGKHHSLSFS
Protocol: as §1, §2, §3

PKA = PKA (Homo sapiens, UniProt P17612); assay: PKA Inhibition Assay (coupled enzyme assay); settings: 50 μM ATP, 80 μM Kemptide, 18 nM PKA, 30 °C
Protocol: Compounds were screened for their ability to inhibit PKA using a standard coupled enzyme assay (Fox et al., Protein Sci, 1998, 7, 2249). Assays were carried out in a mixture of 100 mM HEPES (pH 7.5), 10 mM MgCl2, 25 mM NaCl, 1 mM DTT and 3% DMSO. Final substrate concentrations in the assay were 50 μM ATP (Sigma Chemicals) and 80 μM peptide (Kemptide, American Peptide, Sunnyvale, Calif.). Assays were carried out at 30 ° C. and 18 nM PKA. Final concentrations of the components of the coupled enzyme system were 2.5 mM phosphoenolpyruvate, 300 μM NADH, 30 μg/ml pyruvate kinase and 10 μg/ml lactate dehydrogenase.
An assay stock buffer solution was prepared containing all of the reagents listed above, with the exception of ATP, and the test compound of the present invention. 55 μl of the stock solution was placed in a 96 well plate followed by addition of 2 μl of DMSO stock containing serial dilutions of the test compound of the present invention (typically starting from a final concentration of 5 μM). The plate was preincubated for 10 minutes at 30° C. and the reaction initiated by addition of 5 μl of ATP (final concentration 50 μM). Initial reaction rates were determined with a Molecular Devices SpectraMax Plus plate reader over a 15 minute time course. IC50 and Ki data were calculated from non-linear regression analysis using the Prism software package (GraphPad Prism version 3.0a for Macintosh, GraphPad Software, San Diego, Calif., USA).

ROCK = target: T2, ROCK (Homo sapiens, UniProt Q13464); assay: ROCK Inhibition Assays; settings: read-out: ROCK enzyme inhibition (Ki)
T2 construct: ROCK I (AA 6-553)
Protocol: Compounds are screened for their ability to inhibit ROCK I (AA 6-553) activity using a standard coupled enzyme system (Fox et al. Protein Sci. 7: 2249, 1998). Reactions are carried out in a solution containing 100 mM HEPES (pH 7.5), 10 mM MgCl2, 25 mM NaCl, 2 mM DTT and 1.5% DMSO. Final substrate concentrations in the assay are 45 μM ATP (Sigma Chemicals, St Louis, Mo.) and 200 μM peptide (American Peptide, Sunnyvale, Calif.). Reactions are carried out at 30 ° C. and 45 nM ROCK I. Final concentrations of the components of the coupled enzyme system are 2.5 mM phosphoenolpyruvate, 350 μM NADH, 30 μg/ml pyruvate kinase and 10 μg/ml lactate dehydrogenase.
Compounds are screened for their ability to inhibit ROCK using a standard radioactive enzyme assay. Assays are carried out in a solution containing 100 mM HEPES (pH 7.5), 10 mM MgCl2, 25 mM NaCl, 2 mM DTT and 1.5% DMSO. Final substrate concentrations in the assay are 13 μM [γ-^33P] ATP (25 mCi ^33P ATP/mmol ATP, Perkin Elmer, Cambridge, Mass./Sigma Chemicals, St Louis, Mo.) and 27 μM Myelin Basic Protein (MBP). Final enzyme concentration in the assay is 5 nM ROCK. Assays are carried out at room temperature. 1.5 μl of DMSO stock containing serial dilutions of the compound of the present invention (concentrations ranging from 10 μM to 2.6 nM) is placed in a 96 well plate. 50 μl of Solution 1 (100 mM HEPES (pH 7.5), 10 mM MgCl2, […] [γ-^33P] ATP) is added to the plate. The reaction is initiated by addition of 50 μl of Solution 2 (100 mM HEPES (pH 7.5), 10 mM MgCl2, 4 mM DTT, […] and 10 nM ROCK). After 2 hours the reaction is quenched with 50 μL of 30% trichloroacetic acid (TCA, Fisher) containing 9 mM ATP. Transfer of 140 μL of the quenched reaction to a glass fiber filter plate (Corning, Cat. No.3511) is followed by washing 3 times with 5% TCA. 50 μL of Optima Gold scintillation fluid (Perkin Elmer) is added and the plates are counted on a Top Count (Perkin Elmer). After removing mean background values for all of the data points the data is fit using Prism software to obtain a Ki(app).

Sequence of JAK2 (O60674 whole entry): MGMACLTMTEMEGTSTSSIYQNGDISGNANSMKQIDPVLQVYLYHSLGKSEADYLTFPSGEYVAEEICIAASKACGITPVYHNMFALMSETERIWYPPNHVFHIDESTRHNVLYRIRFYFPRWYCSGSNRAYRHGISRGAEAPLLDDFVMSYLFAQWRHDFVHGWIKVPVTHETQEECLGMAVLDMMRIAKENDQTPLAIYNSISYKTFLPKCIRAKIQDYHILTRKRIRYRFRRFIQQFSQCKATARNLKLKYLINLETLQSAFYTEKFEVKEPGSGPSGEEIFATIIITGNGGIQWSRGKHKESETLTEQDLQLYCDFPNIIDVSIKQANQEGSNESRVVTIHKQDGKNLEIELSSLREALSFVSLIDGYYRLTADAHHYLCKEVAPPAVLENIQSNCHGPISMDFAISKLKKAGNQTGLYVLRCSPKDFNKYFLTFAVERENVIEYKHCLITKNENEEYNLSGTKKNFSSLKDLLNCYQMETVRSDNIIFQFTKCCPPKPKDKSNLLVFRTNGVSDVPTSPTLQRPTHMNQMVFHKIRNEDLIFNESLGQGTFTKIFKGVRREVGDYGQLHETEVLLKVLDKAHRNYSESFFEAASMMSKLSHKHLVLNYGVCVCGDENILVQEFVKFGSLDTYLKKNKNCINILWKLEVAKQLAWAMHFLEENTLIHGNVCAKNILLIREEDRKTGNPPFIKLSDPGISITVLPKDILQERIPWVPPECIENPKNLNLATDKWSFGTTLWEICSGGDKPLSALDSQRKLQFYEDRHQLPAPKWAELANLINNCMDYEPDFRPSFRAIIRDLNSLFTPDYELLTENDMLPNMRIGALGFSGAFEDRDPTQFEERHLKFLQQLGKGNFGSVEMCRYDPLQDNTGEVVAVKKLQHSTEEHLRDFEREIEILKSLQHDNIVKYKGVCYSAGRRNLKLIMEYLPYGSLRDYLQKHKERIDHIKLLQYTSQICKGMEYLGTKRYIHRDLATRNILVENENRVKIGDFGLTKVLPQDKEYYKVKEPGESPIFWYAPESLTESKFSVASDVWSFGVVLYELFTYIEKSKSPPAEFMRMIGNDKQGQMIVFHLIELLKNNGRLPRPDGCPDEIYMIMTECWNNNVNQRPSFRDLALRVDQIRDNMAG
T2 sequence (Q13464 6-553): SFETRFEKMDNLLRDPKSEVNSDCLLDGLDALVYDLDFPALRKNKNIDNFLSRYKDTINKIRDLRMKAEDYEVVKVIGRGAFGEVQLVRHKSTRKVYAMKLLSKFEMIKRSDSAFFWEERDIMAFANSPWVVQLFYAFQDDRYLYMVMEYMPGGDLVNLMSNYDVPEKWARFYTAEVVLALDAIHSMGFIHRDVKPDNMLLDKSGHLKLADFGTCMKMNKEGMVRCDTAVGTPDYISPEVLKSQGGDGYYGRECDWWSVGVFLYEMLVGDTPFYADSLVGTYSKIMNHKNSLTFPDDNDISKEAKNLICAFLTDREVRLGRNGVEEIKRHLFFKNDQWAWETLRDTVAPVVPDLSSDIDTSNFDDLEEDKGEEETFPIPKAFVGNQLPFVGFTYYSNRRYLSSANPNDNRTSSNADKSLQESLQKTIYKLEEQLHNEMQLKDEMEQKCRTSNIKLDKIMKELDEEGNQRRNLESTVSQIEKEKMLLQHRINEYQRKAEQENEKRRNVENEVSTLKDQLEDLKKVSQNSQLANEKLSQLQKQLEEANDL

| Ki (JAK2) | Ki (JAK3) | Ki (PKA) | Ki (ROCK) | Structure (SMILES) |
| --- | --- | --- | --- | --- |
| 500 to 5000 nM | > 5000 nM | 500 to 5000 nM | 500 to 5000 nM | O=C(CC(F)(F)F)N1CC=C(c2ncnc3[nH]ccc23)CC1 [Compound 16] |
| < 500 nM | < 500 nM | 500 to 5000 nM | 500 to 5000 nM | Clc1ccc(/C=C/c2ncnc3[nH]ccc23)cc1 [Compound 6, 4-(4-chlorostyryl)-7H-pyrrolo[2,3-d]pyrimidine] |
| < 500 nM | < 500 nM | 500 to 5000 nM | 500 to 5000 nM | c1nc(C2CC3CCC2C3)c2cc[nH]c2n1 (stereo not drawn) [Compound 26, 4-Bicyclo[2.2.1]hept-2-yl-7H-pyrrolo[2,3-d]pyrimidine] |
| 500 to 5000 nM | < 500 nM | 500 to 5000 nM | 500 to 5000 nM | CC1CCCC=C1c1ncnc2[nH]ccc12 (stereo not drawn) [Compound 11] |
| 500 to 5000 nM | 500 to 5000 nM | 500 to 5000 nM | 500 to 5000 nM | c1nc(CCC2OCCCO2)c2cc[nH]c2n1 [Compound 29] |
| < 500 nM | < 500 nM | 500 to 5000 nM | 500 to 5000 nM | CC(C)CCc1ncnc2[nH]ccc12 [Compound 31] |
